Results as given in US11091476B2, “Protein kinase inhibitors, preparation method and medical use thereof” (Gan & Lee Pharmaceuticals, priority 2015, dated 2021).
Entries after “also recorded” stand apart in the source; their conditions may differ. Where two headings read alike, the source gives them in different places.

What was measured:
[1] = Plasma and brain exposure levels after single intragastric administration; assay type: in vivo, CD-1 mice; details: for Cmax: read-out: Blood concentration Cmax, Plasma
Method: The CD-1 mice were used as the test animals, the concentrations of the drugs in the plasma and brain tissue of mice at different time points after single intragastric administration of the representative compound of this disclosure were determined by LC/MS/MS, so as to study the plasma level and brain exposure level of the compounds of the disclosure in mice.
For each test drug, 12 male CD-1 mice were administered intragastrically at a dose of 10 mg/kg and an administration volume of 10 ml/kg after fasting overnight.
The whole brain was collected, mashed and frozen in liquid nitrogen. Ten hours after administration, the remaining animals were sacrificed, whole blood was collected by cardiac puncture, and the whole brain was collected, mashed and frozen in liquid nitrogen.
The whole brain was collected, mashed and frozen in liquid nitrogen. 48 hours after administration, the remaining animals were sacrificed, whole blood was collected by cardiac puncture, and the whole brain was collected, mashed and frozen in liquid nitrogen.
Treatment of the whole blood sample: The collected whole blood was anticoagulated with EDTA-K2, and centrifuged, the supernatant was removed, and the residue was frozen and stored at −20° C. until the sample was analyzed by LC-MS/MS.
Brain homogenate sampling: Brain homogenate were dispersed with PBS (pH=7.4): MeOH (v:v, 2:1) solution in a volume 5 times of the volume of the brain homogenate. 100 μl of solution was taken, and the protein therein was precipitated with 600 μl IS. The mixture was centrifuged at 13,000 rpm and 20-25° C. for 15 minutes. 50 μL of the supernatant was mixed with 150 μL of water containing 0.3% FA and centrifuged at 4° C. 5 μL of the sample was analyzed by LC-MS/MS.
The linear range of sample analysis was 1-2000 ng/ml, and the lowest quantification limit was 1 ng/ml.

[2] = Rat pharmacokinetic determination (LC/MS/MS of plasma); assay type: in vivo, SD rats; details: for bioavailability: oral, intragastric 5 mg/kg vs intravenous 2 mg/kg; for AUC(0-inf): read-out: Area under curve AUC0-∞; for AUC(0-t): read-out: Area under curve AUC0-t; for Vd: read-out: Apparent volume of distribution VZ; for clearance: read-out: Clearance rate Cl; for MRT: read-out: Retention time MRT; for half-life: read-out: Half life T1/2 (converted)
Method: Rat Pharmacokinetic Determination of Representative Compounds of the Present Disclosure
SD rats were used as the test animals, and the concentrations of the drugs in the plasma of rats at different time points after the intravenous administration and intragastric administration of the representative compounds were determined by LC/MS/MS, so as to study the pharmacokinetic behavior of the compounds of the disclosure in rats and evaluate the pharmacokinetic characteristics thereof.
Intragastric administration: An appropriate amount of sample was weighed, and added with 0.1% hydroxyethyl cellulose/0.5% TWEEN®80 to a final volume to give 1 mg/ml solution.
Whole blood was anticoagulated with EDTA-K2 and centrifuged, the supernatant was removed, and the residue was frozen at −20° C. until sample analysis. Plasma samples were analyzed by LC-MS/MS, sample pretreatment was performed using a protein precipitation method, the linear range of sample analysis was 1-2000 ng/ml, and the lowest quantification limit was 1 ng/ml.

CDK4/CyclinE1 = CDK4/CyclinE1 (Homo sapiens, UniProt P11802); details: read-out: CDK4/CyclinE1 IC50
Method: Measurement of CDK kinase inhibitory activity of the compounds of this disclosure.
In vitro inhibitory effect of the compounds of the disclosure on CDK (CDK1, CDK4 and CDK6) kinase activity was tested by the following method.
1.1 Instrument and Kit Information
1.2 Experimental Preparation • 1.2.1 Preparation of Kinase Reaction Buffer I: The 5×Reaction Buffer A (Promega; V307A-C) provided in the kit was mixed and diluted with MILLI-Q® H2O and 0.1 M DTT (dithiothreitol) to give 4× kinase buffer, and then MILLI-Q® H2O was further added to finally formulate the solution into 1× Kinase buffer.
The final concentration was 50 μM. • b. 40 μl of kinase reaction buffer II was added into B2 to B10 of a 96-well plate, and 50 μl of the above solution was added into B1; • c. […]
1.3 Experimental process: • 1.3.1: 2 μl of compound solutions of various concentrations were taken, added to a 384-well plate, and centrifuged 3 minutes; • 1.3.2: 4 μl of kinase solution was added to each well, centrifuged at 5000 rpm and 18° C. for 10 minutes, and shaken on a plate shaker for 10 minutes; • 1.3.3: 4 μl of mixed solution of substrate and ATP was added to each well, centrifuged at 5000 rpm and 18° C. for 10 minutes, and shaken on a plate shaker at 37° C. for 90 minutes; • 1.3.4: The 384-well plate was taken out, and allowed to stand to room temperature; • 1.3.5: 10 μl of ADP-GLO™ reagent was added to each well, centrifuged at 5000 rpm and 18° C. for 18 minutes, and shaken on a plate shaker at 25° C. for 40 minutes, and then the reaction was stopped; • 1.3.6: 20 μl of kinase detection reagent was added to each well, centrifuged at 5000 rpm and 18° C. for 10 minutes, and shaken on a plate shaker at 25° C. for 30 minutes; and • 1.3.7: M1000pro MICROPLATE READER was used to read […] values.
The inhibition rate of each compound at each concentration point was calculated by the formula as follows and curve fitting was performed by GraphPad Prism 5 software to obtain the IC50 value.

[3] = male, mouse, po, CD-1 mice, intragastric 10 mg/kg, brain, read-out: Area under curve AUC0-last, Brain
[4] = male, mouse, po, CD-1 mice, intragastric 10 mg/kg, brain, read-out: The time for blood concentration reaching peak Tmax, Brain
[5] = male, mouse, po, CD-1 mice, intragastric 10 mg/kg, plasma, read-out: Area under curve AUC0-last, Plasma
[6] = male, mouse, po, CD-1 mice, intragastric 10 mg/kg, plasma
[7] = male, mouse, po, CD-1 mice, intragastric 10 mg/kg, plasma, read-out: The time for blood concentration reaching peak Tmax, Plasma
[8] = male, SD, rat, plasma, po, rats, single intragastric administration, 5 mg/kg
[9] = male, rat, plasma, po, rats, single intragastric administration, 5 mg/kg, Mean ± SD
[10] = male, rat, plasma, rats, single intravenous administration, 2 mg/kg, Mean ± SD

CDK4/CyclinE1, sequence (P11802 2-303 limits assumed): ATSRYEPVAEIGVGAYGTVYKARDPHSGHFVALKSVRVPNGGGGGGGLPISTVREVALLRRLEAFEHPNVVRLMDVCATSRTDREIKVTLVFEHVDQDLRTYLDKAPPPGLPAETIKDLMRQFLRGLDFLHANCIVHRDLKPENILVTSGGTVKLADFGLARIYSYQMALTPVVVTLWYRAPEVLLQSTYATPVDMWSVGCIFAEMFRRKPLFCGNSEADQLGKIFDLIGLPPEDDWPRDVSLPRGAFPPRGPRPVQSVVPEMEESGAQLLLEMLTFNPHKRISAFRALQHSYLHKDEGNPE

Compound | AUC(0-t) [1, 3] [ng·h/mL] | Tmax [1, 4] [h] | AUC(0-t) [1, 5] [ng·h/mL] | Cmax [1, 6] [ng/mL] | Tmax [1, 7] [h] | bioavailability ([2]; male, SD, rat, plasma, rats) [%] | AUC(0-inf) [2, 8] [ng·h/mL] | AUC(0-t) [2, 9] [ng·h/mL] | Vd [2, 10] [L/kg] | AUC(0-t) [2, 10] [ng·h/mL] | clearance [2, 10] [mL/min/kg] | MRT [2, 10] [h] | IC50 (CDK4/CyclinE1) [nM] | further results
CCN1CCN(Cc2ccc(Nc3ncc(F)c(-c4cc(F)c5nc(C)n(C(C)C)c5c4)n3)nc2)CC1 [LY2835219, reference compound] | 1110 | 6 | 4250 | 836 | 1.5 | 87.4 | 3440 | 3280 ± 731 | 6.95 ± 2.43 | 1500 ± 337 | 22.4 ± 4.49 | 3.82 ± 1.44 |  | 
CCN1CCC(c2ccc(Nc3ncc(F)c(-c4cc(F)c5c(c4)C4(CCCC4)C(C)=N5)n3)nc2)CC1 [Example 12, N-(5-(1-ethylpiperidin-4-yl)pyridin-2-yl)-5-fluoro-4-(7′-fluoro-2′-methylspiro [cyclopentane-1,3′-indol]-5′-yl)pyrimidine-2-amino] |  |  |  |  |  |  |  |  |  |  |  |  | 4.46 | 
CC1=Nc2c(F)cc(-c3nc(Nc4ccc(C5CCN(C)CC5)cn4)ncc3F)cc2C12CCCC2 [Example 17, 5-Fluoro-4-(7′-fluoro-2′-methylspiro[cyclopentane-1,3′-indol]-5′-yl)-N-(5-(1-methylpiperidin-4-yl)pyridin-2-yl)pyrimidine-2-amino] | 16800 | 4 | 7660 | 639 | 4 | 102 | 5260 | 2610 ± 1220 | 19.4 ± 5.89 | 1020 ± 239 | 30 ± 11.1 | 7.78 ± 1.3 | 2.62 | Blood concentration Cmax, Brain ([1]; CD-1 mice, intragastric 10 mg/kg, brain): 1270 ng/mL; Kp ([1]; male, mouse, brain/plasma, po, CD-1 mice, intragastric 10 mg/kg, ratio, read-out: Cmax Brain/Plasma): 1.98; Blood brain distribution, in words ([1]; mice, relative to LY2835219): better blood brain distribution; also recorded: good blood-brain distribution; half-life [2, 8]: 2 h; Cmax ([2]; male, rat, plasma, po, rats, single intragastric administration, 5 mg/kg, Mean ± SD, read-out: Blood concentration Cmax): 188 ± 75 ng/mL; MRT [2, 9]: 10.2 ± 0.27 h; AUC(0-inf) [2, 10]: 1220 ± 456 ng·h/mL; half-life [2, 10]: 8.67 ± 4.98 h; Bioavailability in rats, in words ([2]; relative to LY2835219): higher bioavailability
